Results reported in ChEMBL document CHEMBL6121054, “Discovery of Metabolic Reprogramming 2-Quinolones as Effective Antimicrobials for MRSA-Infected Wound Therapy” (J Med Chem, 2025).
In brackets after ≈: the same amount, converted by molar mass. Activity calls are given as the source filed them. No cut-off for these calls is given here.

What was measured:
Staphylococcus aureus [1] = assay: Antibacterial activity against Staphylococcus aureus USA300 incubated for 16 to 24 hrs by broth microdilution method; format: functional; conditions: time 16-24 hrs
Staphylococcus aureus [2] = assay: Antibacterial activity against Staphylococcus aureus USA400 incubated for 16 to 24 hrs by broth microdilution method; format: functional; conditions: time 16-24 hrs
Staphylococcus aureus [3] = assay: Antibacterial activity against Staphylococcus aureus NCTC 8325-4 incubated for 16 to 24 hrs by broth microdilution method; format: functional; conditions: time 16-24 hrs
Staphylococcus aureus [4] = assay: Antibacterial activity against Staphylococcus aureus ATCC 25904 incubated for 16 to 24 hrs by broth microdilution method; format: functional; conditions: time 16-24 hrs
Staphylococcus aureus [5] = assay: Antibacterial activity against Staphylococcus aureus ATCC 29213 incubated for 16 to 24 hrs by broth microdilution method; format: functional; conditions: time 16-24 hrs
Listeria monocytogenes [6] = assay: Antibacterial activity against Listeria monocytogenes EGD incubated for 16 to 24 hrs by broth microdilution method; format: functional; conditions: time 16-24 hrs
Staphylococcus aureus [7] = assay: Antibacterial activity against methicillin-resistant Staphylococcus aureus MRSA 1 incubated for 16 to 24 hrs by broth microdilution method; format: functional; conditions: Staphylococcus aureus, MRSA 1, time 16-24 hrs; read-out: MIC
Acinetobacter baumannii [8] = assay: Antibacterial activity against Acinetobacter baumannii ATCC 17978 incubated for 16 to 24 hrs by broth microdilution method; format: functional; conditions: time 16-24 hrs
Acinetobacter baumannii [9] = assay: Antibacterial activity against Acinetobacter baumannii ATCC 19606 incubated for 16 to 24 hrs by broth microdilution method; format: functional; conditions: time 16-24 hrs
Escherichia coli [10] = assay: Antibacterial activity against Escherichia coli […] incubated for 16 to 24 hrs by broth microdilution method; format: functional; conditions: time 16-24 hrs
Klebsiella pneumoniae [11] = assay: Antibacterial activity against Klebsiella pneumoniae 13b5 incubated for 16 to 24 hrs by broth microdilution method; format: functional; conditions: time 16-24 hrs
Staphylococcus aureus [12] = assay: Bactericidal activity against methicillin-resistant Staphylococcus aureus MRSA 2; format: functional
Staphylococcus aureus [13] = assay: Bactericidal activity against Staphylococcus aureus USA400; format: functional
Staphylococcus aureus [14] = assay: Bactericidal activity against Staphylococcus aureus ATCC 25904; format: functional
Staphylococcus aureus [15] = assay: Bactericidal activity against Staphylococcus aureus ATCC 29213; format: functional
Staphylococcus aureus [16] = assay: Bactericidal activity against Staphylococcus aureus NCTC 8325-4; format: functional
Staphylococcus aureus [17] = assay: Bactericidal activity against Staphylococcus aureus DU1090; format: functional
Listeria monocytogenes [18] = assay: Bactericidal activity against Listeria monocytogenes ATCC 19115; format: functional
Streptococcus suis = assay: Bactericidal activity against Streptococcus suis ZY05719; format: functional
Acinetobacter baumannii [19] = assay: Bactericidal activity against Acinetobacter baumannii ATCC 19606; format: functional
Escherichia coli [20] = assay: Bactericidal activity against Escherichia coli ATCC 25922; format: functional
Escherichia coli [21] = assay: Bactericidal activity against Escherichia coli ATCC ZJ487; format: functional
Klebsiella pneumoniae [22] = assay: Bactericidal activity against Klebsiella pneumoniae ATCC 43816; format: functional
Staphylococcus aureus [23] = assay: Bactericidal activity against methicillin-resistant Staphylococcus aureus USA300 at >= 1 ug/ml measured upto 24 hrs by time-kill assay relative to control; format: functional; conditions: dose >= 1 µg/ml
Staphylococcus aureus [24] = assay: Inhibition of biofilm formation in Staphylococcus aureus USA300 assessed as decrease in green fluorescence at 0.06 to 0.13 ug/ml incubated for 24 hrs by SYTO 9 dye based CLSM analysis; format: functional, organism-based; conditions: dose 0.06-0.13 µg/ml
Staphylococcus aureus [25] = assay: Eradication of mature biofilm formation in Staphylococcus aureus USA300 incubated for 12 hrs by crystal violet staining based analysis; format: functional, organism-based
Staphylococcus aureus [26] = assay: Disruption of cell membrane integrity in Staphylococcus aureus USA300 assessed as irregular cell structures at 4 to 8 times MIC by TEM/SEM analysis; format: functional, organism-based
Staphylococcus aureus [27] = assay: Disruption of cell membrane integrity in Staphylococcus aureus USA300 assessed as indistinct cytoplasmic borders at 4 to 8 times MIC by TEM/SEM analysis; format: functional, organism-based
Staphylococcus aureus [28] = assay: Disruption of cell membrane integrity in Staphylococcus aureus USA300 assessed as swelling at 4 to 8 times MIC by TEM/SEM analysis; format: functional, organism-based
Staphylococcus aureus [29] = assay: Disruption of cell membrane integrity in Staphylococcus aureus USA300 assessed as protein leakage at 0.25 ug/ml incubated for 6 hrs MIC by SDS-PAGE analysis; format: functional, organism-based; conditions: dose 0.25 µg/ml
Staphylococcus aureus [30] = assay: Disruption of cell membrane integrity in Staphylococcus aureus USA300 assessed as increase in red fluorescence at 1 to 4 times MIC by SYTO-9/PI dye based CLSM analysis; format: functional, organism-based
Staphylococcus aureus [31] = assay: Effect on tyrosine metabolism in Staphylococcus aureus USA300 at 4 times MIC by KEGG analysis; format: functional, organism-based
Staphylococcus aureus [32] = assay: Effect on histidine metabolism in Staphylococcus aureus USA300 at 4 times MIC by KEGG analysis; format: functional, organism-based
Staphylococcus aureus [33] = assay: Antibacterial activity against Staphylococcus aureus USA300 assessed as acceleration of TCA cycle measured by decrease in NAD+/NADH ratio upto 0.25 ug/ml incubated for 5 hrs; format: functional, organism-based; conditions: dose <= 0.25 µg/ml
Staphylococcus aureus [34] = assay: Induction of H2O2 accumulation in Staphylococcus aureus USA300 upto 0.25 ug/ml incubated for 5 hrs; format: functional, organism-based; conditions: dose <= 0.25 µg/ml
Staphylococcus aureus [35] = assay: Impairment of antioxidant defense system in Staphylococcus aureus USA300 upto 0.25 ug/ml by WST-8 assay; format: functional, organism-based; conditions: dose <= 0.25 µg/ml
A549 [36] = assay: Cytotoxicity against human A549 cells assessed as cell viability upto 8 ug/ml incubated for 6 hrs by LDH assay; format: toxicity, cell-based; conditions: a549, 6 h, dose < 8 µg/ml
Caco-2 = assay: Cytotoxicity against human Caco-2 cells assessed as cell viability upto 8 ug/ml incubated for 6 hrs by LDH assay; format: toxicity, cell-based; conditions: caco-2, 6 h, dose < 8 µg/ml
J774.A1 = assay: Cytotoxicity against mouse J774.A1 cells assessed as cell viability upto 8 ug/ml incubated for 6 hrs by LDH assay; format: toxicity, cell-based; conditions: j774.a1, 6 h, dose < 8 µg/ml
A549 [37] = assay: Reversal of Staphylococcus aureus USA300-induced cytotoxicity in human A549 cells infected with bacteria assessed as reduction in number of dead cells at 4 to 8 ug/ml preincubated with compound followed by […] infection for 5 hrs by Calcein AM/Ethidium homodimer-1 dye based analysis; format: functional, cell-based; conditions: dose 4-8 µg/ml
Staphylococcus aureus [38] = assay: Antibacterial activity against methicillin-resistant Staphylococcus aureus infected in BALB/c mouse wound model assessed as decrease in wound area at 20 to 80 mg/kg administered topically on days 0, 3 and 6 measured after 12 days; format: functional, organism-based; conditions: dose 20-80 mg/kg, route top, time 12.0 day
Staphylococcus aureus [39] = assay: Antibacterial activity against methicillin-resistant Staphylococcus aureus infected in BALB/c mouse wound model assessed as reduction in bacterial load at 20 to 80 mg/kg administered topically on days 0, 3 and 6 measured after 6 days; format: functional, organism-based; conditions: dose 20-80 mg/kg, route top, time 6.0 day
Staphylococcus aureus [40] = assay: Antibacterial activity against methicillin-resistant Staphylococcus aureus infected in BALB/c mouse wound model assessed as reversal of inflammation-induced TNF-alpha level in wound at 20 to 80 mg/kg administered topically on days 0, 3 and 6 measured after 12 days by ELISA; format: functional, organism-based; conditions: dose 20-80 mg/kg, route top, time 12.0 day
Staphylococcus aureus [41] = assay: Antibacterial activity against methicillin-resistant Staphylococcus aureus infected in BALB/c mouse wound model assessed as reversal of inflammation-induced IL-1beta level in wound at 20 to 80 mg/kg administered topically on days 0, 3 and 6 measured after 12 days by ELISA; format: functional, organism-based; conditions: dose 20-80 mg/kg, route top, time 12.0 day

CCn1c(=O)c(C(=O)Nc2nnc(-c3ccc(C)cn3)s2)c(O)c2ccccc21
MIC (Staphylococcus aureus [1]): 0.04 µg/mL (≈ 0.0982 µM) | MIC (Staphylococcus aureus [2]): 0.03 µg/mL (≈ 0.0736 µM) | MIC (Staphylococcus aureus [3]): 0.03 µg/mL (≈ 0.0736 µM) | MIC (Staphylococcus aureus [4]): 0.02 µg/mL (≈ 0.0491 µM) | MIC (Staphylococcus aureus [5]): 0.03 µg/mL (≈ 0.0736 µM) | MIC (Listeria monocytogenes [6]): 0.02 µg/mL (≈ 0.0491 µM) | MIC (Staphylococcus aureus [7]): 0.02 µg/mL (≈ 0.0491 µM) | MIC (Acinetobacter baumannii [8]): > 512 µg/mL | MIC (Acinetobacter baumannii [9]): > 512 µg/mL | MIC (Escherichia coli [10]): > 512 µg/mL | MIC (Klebsiella pneumoniae [11]): > 512 µg/mL | MBC (Staphylococcus aureus [12]): 0.05 µg/mL (≈ 0.123 µM) | MBC (Staphylococcus aureus [13]): 0.05 µg/mL (≈ 0.123 µM) | MBC (Staphylococcus aureus [14]): 0.17 µg/mL (≈ 0.417 µM) | MBC (Staphylococcus aureus [15]): 0.15 µg/mL (≈ 0.368 µM) | MBC (Staphylococcus aureus [16]): 0.09 µg/mL (≈ 0.221 µM) | MBC (Staphylococcus aureus [17]): 0.23 µg/mL (≈ 0.564 µM) | MBC (Listeria monocytogenes [18]): > 0.25 µg/mL | MBC (Streptococcus suis): 0.1 µg/mL (≈ 0.245 µM) | MBC (Acinetobacter baumannii [19]): > 512 µg/mL | MBC (Escherichia coli [20]): > 512 µg/mL | MBC (Escherichia coli [21]): > 512 µg/mL | MBC (Klebsiella pneumoniae [22]): > 512 µg/mL | Activity (Staphylococcus aureus [23]): ~100% | inhibition (Staphylococcus aureus [24]): Active | Activity (Staphylococcus aureus [25]): Active | Activity (Staphylococcus aureus [26]): Active | Activity (Staphylococcus aureus [27]): Active | Activity (Staphylococcus aureus [28]): Active | Activity (Staphylococcus aureus [29]): Active | Activity (Staphylococcus aureus [30]): Active | Activity (Staphylococcus aureus [31]): Active | Activity (Staphylococcus aureus [32]): Active | Activity (Staphylococcus aureus [33]): Active | Activity (Staphylococcus aureus [34]): Active | Activity (Staphylococcus aureus [35]): Active | Activity (A549 [36]): Non-toxic | Activity (Caco-2): Non-toxic | Activity (J774.A1): Non-toxic | Activity (A549 [37]): Active | Activity (Staphylococcus aureus [38]): Active | Activity (Staphylococcus aureus [39]): inactive | Activity (Staphylococcus aureus [40]): Active | Activity (Staphylococcus aureus [41]): Active
